Source: the NIST ThermoML archive (doi:10.1016/j.jct.2016.06.034)

Experiment: osmotic coefficient (dimensionless); mn = molality of the nth substance listed, in mol/kg
Conditions: 308.15 K, 84.5 kPa, Liquid, Knauer Osmomat K-7000

CCCCCCCCCCn1cc[n+](C)c1.[Br-] [1-decyl-3-methylimidazolium bromide] + O
Conditions | osmotic coefficient
m1 = 0.01036 | 1.233
m1 = 0.01532 | 1.16
m1 = 0.01539 | 1.154
m1 = 0.02001 | 1.11
m1 = 0.02014 | 1.106
m1 = 0.02471 | 1.081
m1 = 0.02479 | 1.075
m1 = 0.03022 | 1.06
m1 = 0.03026 | 1.055
m1 = 0.03486 | 1.021
m1 = 0.0384 | 0.9873
m1 = 0.03983 | 0.9742
m1 = 0.04483 | 0.8983
m1 = 0.04981 | 0.8319
m1 = 0.05918 | 0.735
m1 = 0.06429 | 0.687
m1 = 0.06983 | 0.644
m1 = 0.07967 | 0.579
m1 = 0.08811 | 0.53
m1 = 0.09976 | 0.48
m1 = 0.1175 | 0.417
